Results from article PMC5424428, “Characteristics of L-citrulline transport through blood-brain barrier in the brain capillary endothelial cell line (TR-BBB cells)” (Journal of Biomedical Science, 2017).
Where “and” joins values, the source holds several entries; their conditions need not be identical. Equal values may be shown once. Entries after “also recorded” stand apart in the source; their conditions may differ. Read-outs that look alike come from different tables or passages of the source.

What was measured:
TR-BBB cells [1] = test: Inhibition of [14C]L-citrulline uptake in TR-BBB cells by unlabeled amino acids, transporter inhibitors and drugs; type: cell-based, rat; conditions: for activity at 2000 µM / activity at 20000 µM / IC50: Rattus norvegicus; for activity at 2000 µM / activity at 20000 µM / Ki / IC50 / Uptake of [14C]L-citrulline (% of control): 5 min; for Effect on [14C]L-citrulline uptake: unlabeled compound present; for Decrease of [14C]L-citrulline uptake: discussion of Table 3; for Mode of inhibition of [14C]L-citrulline uptake / Ki: Lineweaver-Burk plot; for Ki: 300 μM inhibitor
Method: (§1) The TR-BBB cells established from transgenic rats harboring the temperature-sensitive simian virus 40 large T-antigen, an in vitro BBB model, were cultured at 33 °C as described previously (21). TR-BBB cells were received from Professor Tetsuya Terasaki (Tohoku University, Japan) and were cultured with Dulbecco’s modified Eagle’s medium (Invitrogen, San Diego, CA), supplemented with 10% fetal bovine serum, 100 U/mL penicillin, 100 μg/mL streptomycin (Invitrogen, San Diego, CA) and 15 μg/L endothelial cell growth factor (Roche, Mannheim, Germany) at 33 °C in a humidified atmosphere of 5% CO2/air. On rat tail collagen type I-coated 24 well culture plates (IWAKI, Tokyo, Japan) initial seeding was carried out at 1 × 10^5 cells/well for the uptake study. After incubation for 2 days at 33 °C, the cultures became confluent and then they were used in the transport study. L-Citrulline free medium was used all experiments except for experiments on saturation kinetics of [^14C]L-citrulline uptake (Fig. 2), Lineweaver-Burk plots for [^14C]L-citrulline uptake (Fig. 4), or inhibitory effect of L-amino acids as a control (Table 2).
(§2) The [^14C] L-citrulline uptake study was performed according to the previous report. Briefly, extracellular fluid (ECF) buffer containing [^14C]L-citrulline (44.4 μM) in the presence or absence of unlabeled inhibitors was added to the TR-BBB cells and then incubated at pH 7.4 and 37 °C for the designated time (5 min). Uptake was terminated by the addition of ice-cold ECF buffer. A Na^+ free transport medium was prepared by using LiCl, choline chloride, sodium gluconate and KHCO3 instead of NaCl and NaHCO3, respectively. The cells were then solubilized by incubation overnight in 750 μL of 1 N NaOH at room temperature, and the measurement of radioactivity was performed in a liquid scintillation counter (LS6500; Beckman, Fullerton, CA). Cell to medium ratio (μL/mg protein) was calculated as follows: the radioactivity (dpm/μL) in the sample per milligram cell protein (dpm/mg protein).
To analyze the competitive nature of L-dopa and gabapentin for [^14C]L-citrulline uptake, Lineweaver-Burk plots were generated. The inhibitory constant (K i) was calculated from Eq. (2):2 V=Vmax⋅C/Km⋅1+I/Ki+C where I corresponds to the concentration of L-dopa or gabapentin, respectively.

TR-BBB cells [2] = test: [14C]L-citrulline uptake study in TR-BBB cells (time course, ion dependence, saturation kinetics); type: in vitro ADME, rat; conditions: for Uptake of [14C]L-citrulline (% of control): ion dependence: Na+ and/or Cl- replaced in the uptake buffer by the named salt, mean ± S.E.M.
Method: as §1, §2
For kinetic studies, the Michaelis-Menten constant (K m) and the maximum uptake rate (V max) of [^14C] L-citrulline were estimated from Eq. (1):1 V=Vmax⋅C/Km+C
Where V and C are the initial uptake rate of [^14C] L-citrulline at 5 min and the concentration of L-citrulline, and V max is the maximum uptake rate for the saturable component.

[3] = Table 4, drug 2 mM, pH 7.4, 37 °C, mean ± S.E.M., read-out: Uptake of [14C]L-citrulline (% of control)
[4] = pH 7.4, read-out: IC50 for inhibition of [14C]L-citrulline uptake
[5] = Table 4, drug 0.5 mM, pH 7.4, 37 °C, mean ± S.E.M.
[6] = Table 3, transporter inhibitor 2 mM, pH 7.4, 37 °C, mean ± S.E.M.
[7] = Table 2, L-amino acid 2 mM, pH 7.4, 37 °C, mean ± S.E.M.
[8] = pH 7.4, read-out: Uptake of [14C]L-citrulline (% of control), Table 2, L-amino acid 2 mM, pH 7.4, 37 °C, mean ± S.E.M.
[9] = Table 2, L-amino acid 2 mM, pH 7.4, 37 °C, mean ± S.E.M., read-out: Uptake of [14C]L-citrulline (% of control)
[10] = TR-BBB cells, pH 7.4, 37 °C, read-out: IC50 for inhibition of [14C]L-citrulline uptake
[11] = Table 2, L-amino acid 20 mM, pH 7.4, 37 °C, mean ± S.E.M.

## NC1(C(=O)O)CC2CCC1C2 (centres unmarked) [BCH, 2-aminobicyclo-(2,2,1)-heptane-2-carboxylic acid]
TR-BBB cells [1]; Table 3, transporter inhibitor 2 mM, pH 7.4, 37 °C, mean ± S.E.M., read-out: Uptake of [14C]L-citrulline (% of control)
  activity at 2000 µM: 25.3 ± 4.4%
TR-BBB cells [1]; Table 3, transporter inhibitor 20 mM, pH 7.4, 37 °C, mean ± S.E.M., read-out: Uptake of [14C]L-citrulline (% of control)
  activity at 20000 µM: 28.1 ± 11.6%
TR-BBB cells [1]; TR-BBB cells
  Effect on [14C]L-citrulline uptake: markedly inhibited
TR-BBB cells [1]
  Decrease of [14C]L-citrulline uptake: about 75%

## C[N+](C)(C)CCO.[Cl-] [Choline Chloride, choline chloride]
TR-BBB cells [2]; pH 7.4, 37 °C, 5 min
  Uptake of [14C]L-citrulline (% of control): 83.3 ± 5.7 % of control

## NCCc1ccc(O)c(O)c1 [Dopamine]
TR-BBB cells [1]; [3]
  activity at 2000 µM: 110 ± 2.7%
TR-BBB cells [1]; TR-BBB cells
  Effect on [14C]L-citrulline uptake: no effect; also recorded: no significant effects

## NCC1(CC(=O)O)CCCCC1 [Gabapentin]
TR-BBB cells [1]
  Mode of inhibition of [14C]L-citrulline uptake: competitively inhibited
TR-BBB cells [1]; pH 7.4, 37 °C
  Ki: 679 µM
TR-BBB cells [1]; [4]
  IC50: 223 µM
TR-BBB cells [1]; TR-BBB cells
  Effect on [14C]L-citrulline uptake: strongly inhibited; also recorded: significantly inhibited
TR-BBB cells [1]; [5]
  Uptake of [14C]L-citrulline (% of control): 45.0 ± 2.52 % of control
TR-BBB cells [1]; Table 4, drug 5 mM, pH 7.4, 37 °C, mean ± S.E.M.
  Uptake of [14C]L-citrulline (% of control): 29.6 ± 2.73 % of control

## COc1ccc2c3c([nH]c2c1)C(C)=NCC3 [Harmaline]
TR-BBB cells [1]
  Decrease of [14C]L-citrulline uptake: about 40%

## NC(N)=NCCCC[C@H](N)C(=O)O [Homoarginine]
TR-BBB cells [1]; TR-BBB cells
  Effect on [14C]L-citrulline uptake: no inhibition effect
TR-BBB cells [1]; [6]
  Uptake of [14C]L-citrulline (% of control): 95.98 ± 13.8 % of control

## C[C@H](N)C(=O)O [L-Alanine]
TR-BBB cells [1]; TR-BBB cells
  Effect on [14C]L-citrulline uptake: significantly inhibited
TR-BBB cells [1]; [7]
  Uptake of [14C]L-citrulline (% of control): 73.0 ± 6.4 % of control

## N=C(N)NCCC[C@H](N)C(=O)O [L-Arginine]
TR-BBB cells [1]; [4]
  IC50: 33400 µM
TR-BBB cells [1]; [8]
  activity at 2000 µM: 59.9 ± 6.6%
TR-BBB cells [1]; pH 7.4, read-out: Uptake of [14C]L-citrulline (% of control), Table 2, L-amino acid 20 mM, pH 7.4, 37 °C, mean ± S.E.M.
  activity at 20000 µM: 53.2 ± 4.4%
TR-BBB cells [1]; TR-BBB cells
  Effect on [14C]L-citrulline uptake: significantly inhibited

## N[C@@H](CC(=O)O)C(=O)O [L-Aspatate, L-aspartate]
TR-BBB cells [1]; TR-BBB cells
  Effect on [14C]L-citrulline uptake: did not inhibit
TR-BBB cells [1]; [7]
  Uptake of [14C]L-citrulline (% of control): 101.5 ± 8.6 % of control

## NC(=O)NCCC[C@H](N)C(=O)O [L-Citrulline]
TR-BBB cells [2]; 44.4 μM, 37 °C, ECF buffer
  Time-course of [14C]L-citrulline uptake: linear for 5 min
TR-BBB cells [2]; absence of Na+ or Cl- in the uptake buffer
  Ion dependence of [14C]L-citrulline uptake: no significant difference
TR-BBB cells [2]; first (Km1) of two saturable components, 0–5 mM unlabeled L-citrulline, 5 min, pH 7.4, 37 °C
  Michaelis-Menten constant Km1 of [14C]L-citrulline uptake: 30.9 ± 1.0 µM and 30.9 µM
TR-BBB cells [2]; first saturable component, 5 min, pH 7.4, 37 °C
  Vmax1 of [14C]L-citrulline uptake: 185 nmol/mg/min
TR-BBB cells [2]; second (Km2) of two saturable components, 0–5 mM unlabeled L-citrulline, 5 min, pH 7.4, 37 °C
  Michaelis-Menten constant Km2 of [14C]L-citrulline uptake: 1.69 ± 0.43 mM and 1.69 mM
TR-BBB cells [2]; second saturable component, 5 min, pH 7.4, 37 °C
  Vmax2 of [14C]L-citrulline uptake: 3.19 µmol/mg/min
TR-BBB cells [1]; [8]
  activity at 2000 µM: 36 ± 2.1%

## N[C@@H](CS)C(=O)O [L-Cysteine]
TR-BBB cells [1]; [9]
  activity at 2000 µM: 48.4 ± 2.6%
TR-BBB cells [1]; TR-BBB cells
  Effect on [14C]L-citrulline uptake: significantly inhibited

## N[C@@H](Cc1ccc(O)c(O)c1)C(=O)O [L-Dopa]
TR-BBB cells [1]
  Mode of inhibition of [14C]L-citrulline uptake: competitively inhibited
TR-BBB cells [1]; pH 7.4, 37 °C
  Ki: 486 µM
TR-BBB cells [1]; [10]
  IC50: 501 µM
TR-BBB cells [1]; TR-BBB cells
  Effect on [14C]L-citrulline uptake: strongly inhibited; also recorded: significantly inhibited
TR-BBB cells [1]; [5]
  Uptake of [14C]L-citrulline (% of control): 52.1 ± 6.6 % of control
TR-BBB cells [1]; Table 4, drug 2 mM, pH 7.4, 37 °C, mean ± S.E.M.
  Uptake of [14C]L-citrulline (% of control): 21.6 ± 2.8 % of control

## N[C@@H](CCC(=O)O)C(=O)O [L-Glutamate]
TR-BBB cells [1]; pH 7.4, read-out: Uptake of [14C]L-citrulline (% of control)
  activity at 2000 µM: 103 ± 7.8%
TR-BBB cells [1]; TR-BBB cells
  Effect on [14C]L-citrulline uptake: did not inhibit

## NC(=O)CC[C@H](N)C(=O)O [L-Glutamine]
TR-BBB cells [1]; [9]
  activity at 2000 µM: 37.5 ± 1.3%

## CC(C)C[C@H](N)C(=O)O [L-Leucine]
TR-BBB cells [1]; [7]
  Uptake of [14C]L-citrulline (% of control): 49.4 ± 5.8 % of control
TR-BBB cells [1]; [11]
  Uptake of [14C]L-citrulline (% of control): 17.2 ± 3.9 % of control

## NCCCC[C@H](N)C(=O)O [L-Lysine]
TR-BBB cells [1]; TR-BBB cells
  Effect on [14C]L-citrulline uptake: significantly inhibited
TR-BBB cells [1]; [7]
  Uptake of [14C]L-citrulline (% of control): 74.5 ± 9.0 % of control
TR-BBB cells [1]; [11]
  Uptake of [14C]L-citrulline (% of control): 66.78 ± 2.1 % of control

## N[C@@H](Cc1ccccc1)C(=O)O [L-Phenylalanine]
TR-BBB cells [1]; [10]
  IC50: 68.9 µM
TR-BBB cells [1]; TR-BBB cells
  Effect on [14C]L-citrulline uptake: strongly inhibited
TR-BBB cells [1]; [7]
  Uptake of [14C]L-citrulline (% of control): 13.7 ± 1.8 % of control
TR-BBB cells [1]; [11]
  Uptake of [14C]L-citrulline (% of control): 13.4 ± 1.4 % of control

## N[C@@H](CO)C(=O)O [L-Serine]
TR-BBB cells [1]; [9]
  activity at 2000 µM: 79.7 ± 2.5%
TR-BBB cells [1]; TR-BBB cells
  Effect on [14C]L-citrulline uptake: significantly inhibited

## CC(C)[C@H](N)C(=O)O [L-Valine]
TR-BBB cells [1]; [7]
  Uptake of [14C]L-citrulline (% of control): 31.5 ± 1.4 % of control

## [Cl-].[Li+] [LiCl]
TR-BBB cells [2]; pH 7.4, 37 °C, 5 min
  Uptake of [14C]L-citrulline (% of control): 116.2 ± 5.2 % of control

## CNC(C)(C)C(=O)O [MeAIB, N-(methylamino) isobutyric acid]
TR-BBB cells [1]; TR-BBB cells
  Effect on [14C]L-citrulline uptake: no inhibition effect
TR-BBB cells [1]; [6]
  Uptake of [14C]L-citrulline (% of control): 99.8 ± 6.3 % of control

## CN1C(=O)C=CC1=O [Methylmaleimide, L-methylmaleimide]
TR-BBB cells [1]; TR-BBB cells
  Effect on [14C]L-citrulline uptake: no inhibition effect
TR-BBB cells [1]; [6]
  Uptake of [14C]L-citrulline (% of control): 103.2 ± 10.1 % of control

## C=C[C@H]1C[N@@]2CC[C@H]1C[C@@H]2[C@@H](O)c1ccnc2ccc(OC)cc12 [Qunidine, Quinidine]
TR-BBB cells [1]; 500 µM
  Uptake of [14C]L-citrulline (% of control): 52.5 ± 3.0 % of control
TR-BBB cells [1]; TR-BBB cells
  Effect on [14C]L-citrulline uptake: significantly inhibited

## O=C([O-])[C@H](O)[C@@H](O)[C@H](O)[C@H](O)CO.[Na+] [Sodium gluconate, sodium gluconate]
TR-BBB cells [2]; pH 7.4, 37 °C, 5 min
  Uptake of [14C]L-citrulline (% of control): 103.9 ± 6.8 % of control

## NCCS(=O)(=O)O [Taurine]
TR-BBB cells [1]; [3]
  activity at 2000 µM: 90.5 ± 4.4%
TR-BBB cells [1]; TR-BBB cells
  Effect on [14C]L-citrulline uptake: no significant effects

## Nc1c2c(nc3ccccc13)CCCC2 [tacrine]
TR-BBB cells [1]; TR-BBB cells
  Effect on [14C]L-citrulline uptake: no significant inhibition effect
